Experiments:
Type in all cases: functional, tissue-based
[1] = system: Right cardiac atrium; assay: Negative […] activity in electrically-paced Cavia porcellus (guinea pig) right atrium assessed as effect on force measured after 60 min by isometric transducer analysis in presence of benextramine/4-DAMP mustard; conditions: 1 h
[2] = system: Right cardiac atrium; assay: Negative […] activity in electrically-paced Cavia porcellus (guinea pig) right atrium assessed as effect on force measured after 60 min by isometric transducer analysis in absence of benextramine/4-DAMP mustard; conditions: 1 h
[3] = system: Left cardiac atrium; assay: Negative ionotropic activity in electrically-paced Cavia porcellus (guinea pig) left atrium measured after 60 min by isometric transducer analysis in presence of benextramine/4-DAMP mustard; conditions: 1 h
[4] = system: Left cardiac atrium; assay: Negative ionotropic activity in electrically-paced Cavia porcellus (guinea pig) left atrium measured after 60 min by isometric transducer analysis in absence of benextramine/4-DAMP mustard; conditions: 1 h
[5] = system: Left cardiac atrium; assay: Negative ionotropic activity in electrically-paced Cavia porcellus (guinea pig) left atrium measured immediately by isometric transducer analysis in absence of benzalkonium/prazosin
[6] = system: Right cardiac atrium; assay: Negative ionotropic activity in electrically-paced Cavia porcellus (guinea pig) right atrium assessed as effect on force measured immediately by isometric transducer analysis in absence of benzalkonium/prazosin

SMILES	EC50 [1] [nM]	EC50 [2] [nM]	EC50 [3] [nM]	EC50 [4] [nM]	EC50 [5] [nM]	EC50 [6] [nM]
CCCCCCCCCCCCNC(=O)[C@@H](N)CCCCN [N-DODECYL LYSINE AMIDE]	0.282	0.417	0.363	0.417		
C#CCOC(=O)C1=CCCN(C)C1 [ARECAIDINE PROPARGYL ESTER]					4.57	1.7

— ChEMBL document CHEMBL3044753, “Polyamines May Modulate Both G Protein-Coupled Receptors and G Proteins” (Med Chem Res, 2004)
